Laboratory results reported in US20050031597A1, “Cells and improved method for preserving cells” (priority 2003, published 2005).

Legend:
[1] = tested on: platelets; experiment: Stability of platelets during incubation (microscopy, flow cytometric analysis); type: cell-based, human
Protocol: The stability of the platelets during a 4 hours incubation period was studied using microscopy and flow cytometric analysis. […] No signs of microvesicle formation could be observed after 4 hours incubation, as can be judged by the stable relative proportion of microvesicle gated cells (less than 3%). The formation of microvesicles is usually considered as the first sign of platelet activation (Owners et al., Trans. Med. Rev., 8, 27-44, 1994). Characteristic antigens of platelet activation include: glycoprotein 53 (gp53, a lysosomal membrane marker), PECAM-1 (platelet endothelial cell adhesion molecule-1, an alpha granule constituent), and P-selection (an alpha granule membrane protein).

[2] = tested on: erythrocytic cells; experiment: Mean corpuscular hemoglobin of trehalose-loaded, freeze-dried and rehydrated erythrocytic cells; type: cell-based
Protocol: The cells had been loaded in media with different trehalose concentration (400 mM trehalose, 500 mM trehalose, 600 mM trehalose, 700 mM trehalose and 800 mm trehalose) in 100 mOsm PBS pH 7.2. The cells were freeze-dried in 300 mM trehalose in 100 mOsm PBS, 15% HES and 2.54% HSA and rehydrated in a buffer containing 188 mM trehalose, 15% HES and 2.5% HSA.

[3] = tested on: erythrocytic cells; experiment: Percent hemolysis of erythrocytic cells during loading or incubation; type: cell-based; conditions: for percent hemolysis: 800 mM trehalose, 100 mOsm ADSOL, 6.6 mM K-phosphate
Protocol: FIG. 9 graphically illustrates % hemolysis of loaded cells as a function of time (hours) of incubation in 300 mOsm PBS pH 7.2. The erythrocytic cells were loaded in 700 mM trehalose in 100 mOsm PBS pH 7.2 at 35° C. for 16 hours. After the loading step, the cells were incubated in 300 mOsm PBS pH 7.2 between 1 and 25 hours. This buffer was used for washing the loaded cells and it was important to determine the stability of the loaded cells when they were suspended in this buffer. Cell stability was assessed by measuring the percent hemolysis over the course of 25 hours. […] Between 7 and 25 hours, there was only a small change in the percent hemolysis (from about 25% to about 30%).
FIG. 10 graphically illustrates time course (incubation time, hours) of hemolysis(%) of trehalose-loaded cells as a function of the composition of the incubation buffer. Erythrocytic cells were loaded in 700 mM trehalose in 100 mOsm PBS pH 7.2 for 16 hours at 35° C. They were washed with 300 mOsm PBS pH 7.2 and were subsequently transferred to storage media with increasing trehalose concentrations (between 100 mM and 300 mM trehalose) added to 100 mOsm PBS pH 7.2. The percent hemolysis was measured over the course of 3 hours. […]
At 23° C., the percent hemolysis increases to 7% during 6 hours of incubation. At 37° C., between 10 and 12% hemolysis is observed during incubation of erythrocytic cells between 6 and 9 hours. […] Such intracellular concentration of trehalose provides high survival of erythrocytic cells after freeze-drying and rehydration, therefore these conditions (incubation in trehalose medium between 6 and 9 hours at 37° C.) can be used for loading erythrocytic cells.

[4] = tested on: human erythrocytic cells; experiment: Trehalose uptake by erythrocytic cells (anthrone assay, HPLC); type: cell-based
Protocol: FIG. 5 graphically illustrates the loading efficiency of trehalose into human erythrocytic cells as a function of external trehalose concentration at respective temperatures of 4° C. and 37° C. Erythrocytic cells were exposed to trehalose for 18 hours at either 4° C. or 37° C. The trehalose concentration in the incubation medium varied between 230 mM and 1000 mM. Each incubation buffer contained trehalose (between 230 mM and 1000 mM) and 100 mOsm PBS pH 7.2. Increase in the trehalose concentration in the loading medium results in an increase in the sugar uptake, reaching about 100 mM cytoplasmic trehalose in erythrocytes incubated in 1000 mM trehalose and 100 mOsm PBS. At 4° C., the uptake was very limited, being about 25 mM. The trehalose intake was measured using anthrone assay and confirmed by high performance liquid chromatography. It is clear that there was substantial loading at 37° C., but not at 4° C. Furthermore, trehalose loading was not significant unless the extracellular cellular trehalose concentration gives a hyperosmotic pressure.
FIG. 7 graphically illustrates trehalose uptake (i.e., intracellular trehalose mM) and hemolysis (i.e., % hemolysis) as a function of incubation temperature (° C.). The incubation temperature was varied between 4° C. and 37° C. […] Between 4° C. and 30° C., the cytoplasmic trehalose was very low (between 1 and 4 mM).
100 mOsm ADSOL contains 24 mM glucose, 0.43 mM adenine, 33.3 mM NaCl and 8.9 mM mannitol. Four different temperatures of incubation were used: 4° C., 23° C., 37° C. and 41° C. […] At 23° C., the uptake was higher than at 4° C. and increased with increase of the time of incubation reaching 22 mM intracellular trehalose. At 37° C., the highest uptake of trehalose by the erythrocytic cells was observed within 16 hours (60 mM). At 41° C., the uptake was slightly higher than that observed at 37° C. within 6 hours.

[5] = about 37° C., about nine(9) hours

platelet morphology ([1]; 4 hours incubation at 37° C., 25 mM external trehalose): No morphological changes | platelet morphology ([1]; 4 hours incubation in 75 mM trehalose): swollen | relative proportion of microvesicle gated cells ([1]; after 4 hours incubation): less than 3% | intracellular trehalose ([4]; 800 mM trehalose, 100 mOsm ADSOL, 6.6 mM K-phosphate, 4° C., 16 hours): 10 mM | intracellular trehalose ([4]; 800 mM trehalose, 100 mOsm ADSOL, 6.6 mM K-phosphate, 23° C.): 22 mM | intracellular trehalose ([4]; 800 mM trehalose, 100 mOsm ADSOL, 6.6 mM K-phosphate, 37° C., within 16 hours): 60 mM | cytoplasmic trehalose ([4]; 800 mM trehalose, 100 mOsm ADSOL, 6.6 mM K-phosphate, nine(9) hours at 4° C.): about 10 mM | cytoplasmic trehalose ([4]; 800 mM trehalose, 100 mOsm ADSOL, 6.6 mM K-phosphate, nine(9) hours at 23° C.): about 22 mM | cytoplasmic trehalose ([4]; 800 mM trehalose, 100 mOsm ADSOL, 6.6 mM K-phosphate, nine(9) hours at 37° C.): about 60 mM | cytoplasmic trehalose ([4]; 6 hours in 800 mM trehalose in 100 mOsm PBS pH 7.2, 37° C.): up to 35 mM | cytoplasmic trehalose uptake ([4]; 18 hours, 4° C.): about 25 mM | cytoplasmic trehalose ([4]; 18 hours, 37° C., 1000 mM trehalose and 100 mOsm PBS): about 100 mM | trehalose (mM) to incubation (hours) loading gradient ([4]; about 23° C.): about 0.75 | trehalose (mM) to incubation (hours) loading gradient [4, 5]: about 1.25 | intracellular trehalose ([4]; loaded in 400 mM trehalose in 100 mOsm PBS at 35° C. for 16 hours): 3 mM | intracellular trehalose ([4]; loaded in 800 mM trehalose in 100 mOsm PBS at 35° C. for 16 hours): 60 mM | trehalose left in the cells after freeze-drying ([4]; loaded in 800 mM trehalose/100 mOsm PBS 16 hours about 35° C., washed, freeze-dried): about 75 mM
SMILES: OC[C@H]1O[C@H](O[C@H]2O[C@H](CO)[C@@H](O)[C@H](O)[C@H]2O)[C@H](O)[C@@H](O)[C@@H]1O [trehalose]
mean corpuscular hemoglobin in rehydrated cells ([2]; cells loaded in 400 mM trehalose): about 7 pg | mean corpuscular hemoglobin in rehydrated cells ([2]; cells loaded in 800 mM trehalose): about 14 pg | MCH ([2]; intracellular trehalose about 40 mM to about 42 mM): about 9 pg | MCH ([2]; intracellular trehalose about 60 mM): greater than 14 pg | percent hemolysis ([3]; 23° C., 6 hours): 7% | percent hemolysis ([3]; 23° C., nine(9) hours): about 7% | percent hemolysis ([3]; 37° C., nine(9) hours): about 12% | hemolysis (%) to incubation (hours) hemolysis gradient ([3]; about 23° C.): about 0.38 | hemolysis (%) to incubation (hours) hemolysis gradient [3, 5]: about 0.25 | percent hemolysis of trehalose-loaded cells ([3]; loaded in 700 mM trehalose/100 mOsm PBS 35° C. 16 hours, start of incubation in 300 mOsm PBS pH 7.2): about 7% | percent hemolysis of trehalose-loaded cells ([3]; loaded in 700 mM trehalose/100 mOsm PBS, 7 hours in 300 mOsm PBS pH 7.2): about 25% | percent hemolysis of trehalose-loaded cells ([3]; loaded in 700 mM trehalose/100 mOsm PBS, 25 hours in 300 mOsm PBS pH 7.2): about 30% | percent hemolysis of trehalose-loaded cells ([3]; storage medium 300 mM trehalose in 100 mOsm PBS, over the course of 3 hours): about 4%
